Laboratory results reported in patent US8399705B2, “Alkali metal salt of glutamic acid N,N-diacetic acid, a process to prepare such salt, and the use thereof” (Akzo Nobel N.V., priority 2007, dated 2013).

Experiment: Viscosity by Brookfield DV-II viscometer
Type: physicochemical
Conditions: 50 wt % product, spindle 34, 10 to 40° C.; compared to Na4 GLDA; data in FIG. 1
Description: After addition of the KOH (45% sol) and the NaOH (50% sol) solution the products were subjected to evaporation to isolate an alkalimetal salt of glutamic acid-N,N-diacetic acid product having a concentration of 50 wt %.
The viscosity of the alkalimetal salt of glutamic acid-N,N-diacetic acid products prepared in Examples 1a-e was determined using a Brookfield DV-II viscometer with a spindle 34 at a temperature of 10 to 40° C.

Row | viscosity | SMILES
1 | significantly lower viscosity | O=C([O-])CC[C@@H](C(=O)[O-])N(CC(=O)[O-])CC(=O)[O-].[K+].[K+].[Na+].[Na+] [Na2K2 GLDA]
2 | significantly lower viscosity | O=C(O)CC[C@@H](C(=O)O)N(CC(=O)O)CC(=O)O.[K].[Na].[Na].[Na] [Na3K GLDA, monopotassium trisodium glutamic acid-N,N-diacetic acid]
